Measurements published in ChEMBL document CHEMBL3045964, “Synthesis, cytotoxicity, and structureactivity insight of NH- and N-methyl-3,5-bis-(arylidenyl)-4-piperidones” (Med Chem Res, 2013).

Key:
L1210 = assay: Cytotoxicity against Mus musculus (mouse) L1210 cells assessed as growth inhibition after 72 hr by MTT assay; assay type: functional, cell-based; conditions: L1210, 72 h
B16 = assay: Cytotoxicity against Mus musculus (mouse) B16 cells assessed as growth inhibition after 72 hr by MTT assay; assay type: functional, cell-based; conditions: B16, 72 h

| Structure (SMILES) | IC50 (L1210) [µM] | IC50 (B16) [µM] |
| --- | --- | --- |
| O=C1/C(=C/c2ccc(Cl)c(Cl)c2)CNC/C1=C\c1ccc(Cl)c(Cl)c1 | 3.6 | 4.1 |
| O=C1/C(=C/c2ccc(O)c([N+](=O)[O-])c2)CNC/C1=C\c1ccc(O)c([N+](=O)[O-])c1 | 2 | 7.3 |
| CCN(CC)c1ccc2cc(/C=C3\CNC/C(=C\c4cc5ccc(N(CC)CC)cc5oc4=O)C3=O)c(=O)oc2c1 | 29 | 44 |
| CCN(CC)c1ccc(/C=C2\CN(C)C/C(=C\c3ccc(N(CC)CC)cc3)C2=O)cc1 | 3.3 | 33 |
| CCN(CC)c1ccc(/C=C2\CNC/C(=C\c3ccc(N(CC)CC)cc3)C2=O)cc1 | 35 | 1.5 |
| CN1C/C(=C\c2ccc(N(C)C)cc2)C(=O)/C(=C/c2ccc(N(C)C)cc2)C1 | 28.5 | 23.5 |
| COc1ccc(/C=C2\CNC/C(=C\c3ccc(OC)nc3)C2=O)cn1 | 2.8 | 3.6 |
| COc1ccc(OC)c(/C=C2\CNC/C(=C\c3cc(OC)ccc3OC)C2=O)c1 | 0.3 | 0.3 |
| O=C1/C(=C/c2ccc3c(c2)OCO3)CNC/C1=C\c1ccc2c(c1)OCO2 | 12.5 | 25 |
| COc1cc(/C=C2\CNC/C(=C\c3cc(OC)cc(OC)c3)C2=O)cc(OC)c1 | 0.3 | 0.3 |
| COc1cc(OC)c(/C=C2\CNC/C(=C\c3c(OC)cc(OC)cc3OC)C2=O)c(OC)c1 | 1.1 | 0.2 |
| COc1cccc(/C=C2\CNC/C(=C\c3cccc(OC)c3)C2=O)c1 | 4.3 | 1.9 |
| O=C1/C(=C/c2cccc(Br)c2)CNC/C1=C\c1cccc(Br)c1 | > 100 | 2.1 |
| CN1C/C(=C\c2cccc(Br)c2)C(=O)/C(=C/c2cccc(Br)c2)C1 | 5 | 2.1 |
| CN1C/C(=C\c2ccc(F)cc2)C(=O)/C(=C/c2ccc(F)cc2)C1 | 31 | 6.5 |
| O=C1/C(=C/c2cccc(O)c2)CNC/C1=C\c1cccc(O)c1 | 2.3 | 0.7 |
| O=C1/C(=C/c2ccc(Cl)cc2)CNC/C1=C\c1ccc(Cl)cc1 | 7 | 4 |
| O=C1/C(=C/c2ccc(F)cc2)CNC/C1=C\c1ccc(F)cc1 | 24.5 | 3.8 |
| CN(C)c1ccc(/C=C2\CNC/C(=C\c3ccc(N(C)C)cc3)C2=O)cc1 | 42.5 | 32.5 |
| CN1C/C(=C\c2ccc(Cl)cc2)C(=O)/C(=C/c2ccc(Cl)cc2)C1 | 10 | 3.8 |
